Experimental data taken from patent publication US20250269046A1, “CELLULAR UPTAKE OF LARGE BIOMOLECULES ENABLED BY CELL-SURFACE-REACTIVE CELL-PENETRATING PEPTIDE ADDITIVES” (FORSCHUNGSVERBUND BERLIN E.V., priority 2021, published 2025).
AEEA = NCCOCCOCC(=O)O

What was measured:
Format in all cases: cell-based
[1] = system: HeLa Kyoto cells transfected with EGFP-transmembrane-Halotag plasmid; assay: Halotag-tethering of CPP and delivery of NLS-mCherry-cR10 I; conditions: 5 μM NLS-mCherry-cR10 I, 20 μM Halo-R10, 1 hour 37° C.
Method: The arrowheads indicate nucleation zones stained by both peptides. b, Time-lapse of the co-delivery of NLS-mCherry-R10 II together with the Maleimide-R10-Cy5 peptide 13 on HeLa Kyoto cells in cell medium. The arrowheads indicate nucleation zones and blue arrowheads the appearance of nucleolar staining of the mCherry. c, Cellular uptake of NLS-mCherry-cR10 I in presence of chloroalkane-modified “Halo-R10” 17 on HeLa Kyoto cells transfected with EGFP-transmembrane-Halotag plasmid, 1 hour at 37° C. in cell medium. SP: Signal peptide, TM: transmembrane sequence. […] Uptake experiments with peptides 16 and 18-20 in FIG. 26. Scale bars 20 μm.
Transfected cells were treated with 1 μM JF646-Halotag-Iigand (Promega). […] The arrowheads show nucleoli with mCherry fluorescence. See also main text FIG. 3. Scale bars 20 μm.
To elaborate this further, the inventors generated a plasmid that would lead to expression of an EGFP reporter inside transfected cells along with a Halotag (England, C. G., Luo, H. & Cai, W. HaloTag technology: a versatile platform for biomedical applications. Bioconjug Chem 26, 975-986, doi:10.1021/acs.bioconjchem.5b00191 (2015)) on the cell surface (simplified plasmid map in FIG. 3c, validation of the plasmid and additional controls in FIG. 28). […]

[2] = system: accessible cell-surface thiols; assay: Fluorescent labelling of accessible cell-surface thiols; conditions: 50 μM for 10 minutes, then 10 μM atto 488 maleimide
Excerpt: Next, the inventors wanted to explore other cysteine-selective reactions in this context. […] The inventors first wanted to confirm that there are addressable, surface-exposed thiols on cells. To that end, the inventors labelled cells with a cell-impermeable, maleimide-functionalized fluorophore (FIG. 20).

[3] = system: HeLa Kyoto cells; assay: Cellular uptake of CPP-bearing cargoes with or without unbound CPP additive, confocal microscopy
[4] = system: HeLa Kyoto cells; assay: Quantitative microscopy of nuclear mCherry fluorescence after co-delivery with R10-peptides; conditions: 5 μM mCherry-R10 conjugate II with additive
Method: To further evaluate the high efficiency of the CPP-peptide additives 1 and 2 in the additive protocol and to probe the impact of the N-terminal thiol functionality, the inventors synthesized additional linear CPPs 3-5 with different thiol derivatives (FIG. 2a). We then co-delivered 5 μM of CPP-conjugates of mCherry either linked to a linear (11) or cyclic R10 (1) (as above in FIG. 1 d-e) together with the newly synthesized peptides 1-5 into HeLa Kyoto cells and used microscopy to measure both nuclear and total fluorescence (representative pictures for all tested conditions in FIG. 12). Thereby, the inventors quantified the desirable delivery to the nucleus and nucleoli (FIG. 2a), and also the amount of unwanted endosomal entrapment (FIG. 13, see example 6 with supporting methods and general methods for details).
Cell culturing is described in the supplementary methods, along with a list of cell lines used in this study. For microscopy experiments, 20′000 cells (10′000 in the case of the GFP-PCNA HeLa Kyoto cell line^7) were seeded into the wells of a 96-well glass bottom plate. The cells were left to adhere and grow for 24 hours at 37° C. with 5% CO2. For 37° C. experiments, the cells were washed once with DMEM before addition of the protein samples in DMEM. The cells were incubated for 1 hour at 37° C. The cells were then washed three times with DMEM with 10% fetal bovine serum (FBS). […] For the quantitative microscopy experiments, the cells were fixed using 4% PFA in PBS for 30 minutes at room temperature after washing.
Quantification of cellular uptake was done using a script for FIJI, see section “Quantification Script”. […] The red fluorescence channel was background subtracted and the red fluorescence within the nuclear mask and outside of it was quantified. Nuclear fluorescence was either normalized to the nuclear area (absolute fluorescence graph in FIG. 2) or to the sum of nuclear and outside fluorescence (relative fluorescence graph in SI FIG. 6). Pearson's correlation coefficient was calculated using the Coloc2 tool in Fiji.

[5] = system: cells; assay: Uptake of NLS-mCherry-R10 and Alexa647-Transferrin with endocytosis inhibitors; conditions: NLS-mCherry-R10 II 5 μM, additive 5 μM, 37° C.; sodium azide, dynasore, pitstop 2
Method: NLS-mCherry-R10 II at a 5 μM concentration was added to cells in combination with 25 μg/mL Alexa647-Transferrin (Invitrogen) as endocytosis control. Where indicated, 5 μM of the Cys-R10 peptide 2 were added to induce nucleolar delivery of the mCherry.

[6] = system: HeLa CCL-2 cells; assay: Cre Stoplight 2.4 reporter, delivery of Cre-exR8, flow cytometry and microscopy
Excerpt: To challenge the delivery protocol, the inventors expressed and purified Cre recombinase fused to a C-terminal R8 peptide (Cre-exR8, characterization in FIG. 39). Fusions of Cre recombinase with the arginine-rich HIV TAT peptide have been previously reported to aid in cell uptake (Peitz, M., Pfannkuche, K., Rajewsky, K. & Edenhofer, F. Ability of the hydrophobic FGF and basic TAT peptides to promote cellular uptake of recombinant Cre recombinase: a tool for efficient genetic engineering of mammalian genomes. Proc Natl Acad Sci USA 99, 4489-4494, doi:10.1073/pnas.032068699 (2002)).
For the Cre recombinase experiments, 200′000 cells were seeded in each well of a 12-well plate. The cells were incubated for 24 hours at 37° C. to settle, then transfected with the reporter plasmid (Cre Stoplight 2.4) using Lipofectamine 2000. The cells were incubated for another 24 hours, then treated with Cre recombinase (or medium) in DMEM with 5% FCS and incubated for 24 more hours. Microscopy pictures were then taken, and the cells were detached with accutase, dead cells stained with DAPI and all cells measured on a LSRFortessa (BD Biosciences, USA) flow cytometer. […] At least 10′000 cells were counted for each condition. The gating strategy is illustrated in FIG. 41.

[7] = system: cells; assay: Uptake of NLS-mCherry-R10 II with additional CPP in presence of serum; conditions: for co-delivery efficiency in presence of serum: 37° C.
Method: Scale bars 20 μm. b, Quantification of relative nuclear fluorescence intensities from microscopy pictures. n.s.=not significant, ***=P<0.0005.
Methods of cargo delivery that rely on endosomal escape are often susceptible to the presence of serum, as they require effective endocytosis of both the cargo and the endosomolytic agent (Erazo-Oliveras, A. et al. Protein delivery into live cells by incubation with an endosomolytic agent. Nat Methods 11, 861-867, doi:10.1038/nmeth.2998 (2014)). The inventors hypothesized that peptide 5 would likely react with thiols in the serum, but the co-delivery with 2 (Cys-R10) should still function. […] Reduction in efficiency in presence of large amounts of serum may be due to the thiols in serum or the unspecific binding of CPPs to serum proteins (Lattig-Tunnemann, G. et al. Backbone rigidity and static presentation of guanidinium groups increases cellular uptake of arginine-rich cell-penetrating peptides. Nat Commun 2, 453, doi:10.1038/ncomms1459 (2011)).

[8] = system: HeLa CLL-2 cells; assay: WST-1 cell viability assay; conditions: 10 μM
Method: Absorbance at 440 nm is indicative of cellular metabolic activity in the processing of WST-1 to the absorbing Formazan. […] The cells were treated with either 5 μM NLS-mCherry-R10 II in DMEM alone (lower panel) or with 10 μM TNB-R10 5 in DMEM (upper panel). After one-hour incubation, cells were washed again in DMEM and treated with 5 μM Calcein AM in DMEM. The morphology of the cells as shown in the differential interference contrast (DIC) images is also unaffected. Scale bars 50 μm. c, Co-delivery of NLS-mCherry-R10 II in presence of Sytox Blue dead cell stain with or without added TNB-R10 5. Scale bars 20 μm.

[9] = system: cells; assay: Cellular uptake of mCherry variants (K10, exR10, R5, R8) with or without TNB-R10 5
Excerpt: Most of our findings point to an energy-independent mode of uptake, but to probe whether TNB-R10 5 can also lead to endosomal leakage of an entrapped cargo, the inventors used peptide 5 on cells in combination with an mCherry variant (NLS-mCherry-K10 Ilil) that had been modified with a K10 peptide (via maleimide chemistry, see FIG. 8).
The inventors also tested if recombinantly expressed CPP-fusion proteins can be delivered, as these require much less equipment and effort to produce.
In the same vein, the inventors also made mCherry variants modified with R5 and R8 peptides and co-delivered them into cells with TNB-R10 5 (FIGS. 36-37).

In the case of “6-chlorohexanoic acid-PEG*-RRRRRRRRRR-Amide ({6‑chlorohexanoyl-AEEA-AEEA}-RRRRRRRRRR-NH2) [compound 17]”, the “nucleolar mCherry staining in transfected cells” value [1] is reported as “mCherry in the nucleoli of EGFP-positive cells”.

In the case of O=C(O)c1cc(SSc2ccc([N+](=O)[O-])c(C(=O)O)c2)ccc1[N+](=O)[O-] [Ellman's reagent, 5,5′-dithiobis-(2-nitrobenzoic acid)], the “labelling of cell-surface thiols by maleimide fluorophore after pre-treatment” value [2] is reported as “Labelling is dramatically reduced”.

N=C(N)NCCC[C@H](NC(=O)[C@H](CCCNC(=N)N)NC(=O)[C@H](CCCNC(=N)N)NC(=O)[C@H](CCCNC(=N)N)NC(=O)[C@H](CCCNC(=N)N)NC(=O)[C@H](CCCNC(=N)N)NC(=O)[C@H](CCCNC(=N)N)NC(=O)[C@H](CCCNC(=N)N)NC(=O)[C@H](CCCNC(=N)N)NC(=O)[C@H](CCCNC(=N)N)NC(=O)COCCOCCNC(=O)COCCOCCNC(=O)[C@@H](N)CS)C(N)=O [peptide 2] was tested, and the “cells with nucleolar red fluorescence” value ([3]; 5 μM NLS-mCherry-R10 II with the CPP-additive) was “more than 90%”, the “nucleolar delivery of NLS-mCherry linked to linear R10 with linear CPP-additive” value ([3]; 5 μM additive, 5 μM NLS-mCherry-R10) was “efficient nucleolar delivery” and the staining after co-delivery [4] was “nuclear/nucleolar staining”. The “nucleolar mCherry in presence of endocytosis inhibitors” value [5] was “could detect nucleolar mCherry regardless of the inhibitor used”, the “expression of the Cre reporter” value ([6]; 1 μM Cre-exR8 with 10 μM peptide vs alone, 5% serum) was “strong increase in expression of the Cre reporter” and the “red fluorescence, epifluorescence microscopy” value ([6]; Cre-exR8 in presence of additional peptide) was “higher incidence of red fluorescence”. For the same compound, the “co-delivery efficiency in presence of serum” value ([7]; 5% serum or lower) was “negligible effect on uptake”, the “co-delivery efficiency in presence of serum” value ([7]; 10% serum) was “reduced efficiency” and the “performance in presence of serum compared with alkylated variant” value ([7]; NLS-mCherry-R10 II, serum) was “performed significantly better than the alkylated variant 3”.

CN[C@@H]1C[C@H]2O[C@@](C)([C@@H]1OC)n1c3ccccc3c3c4c(c5c6ccccc6n2c5c31)C(=O)NC4 [staurosporine] was tested, and the “effect on cellular metabolic activity (positive control)” value [8] was “significant, detrimental effect”.

For “NLS-mCherry-exR10 IV: recombinantly expressed mCherry with a C-terminal R10 peptide, SEQ ID NO: 3”, the “uptake of recombinant CPP-fusion protein” value ([9]; 5 μM alone) was “predominantly endosomal uptake” and the “uptake of recombinant CPP-fusion protein” value ([9]; 5 μM with addition of peptide 5) was “efficiently rescued”.
